According to PubChem BioAssay AID1963861 (Molecular Pharmacology Branch, DTP, NCI, 2024):

System: 885724-159-R-J1-PDC KRAS PDC multicell spheroid viability
Assay: Anticancer human tumor 885724-159-R-J1-PDC patient-derived pancreatic adenocarcinoma cell line growth inhibition [KRAS2]
Conditions: for IC50: curve of first compound; for viability, T/C: stronger effect = lower value; active means viability on the fitted dose curve at most 10% of control; inactive means the rest
In short: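 KRAS-mutant tumor cells were grown as spheroids with HUVEC endothelial cells and human MSCs as stroma. Targeted agents were tested alone and with KRAS pathway inhibitors. Doses started at or near clinical Cmax, or 10 microM, descending half-log.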

[1] = second compound 0.1 µM, first compound 0.01 µM
[2] = second compound 0.1 µM, first compound 0.0316 µM
[3] = second compound 0.1 µM, first compound 0.1 µM
[4] = second compound 0.1 µM, first compound 0.316 µM
[5] = second compound 0.1 µM, first compound 1 µM
[6] = second compound 0.1 µM, first compound 3.16 µM
[7] = second compound 0.316 µM, first compound 0.01 µM
[8] = second compound 0.316 µM, first compound 0.0316 µM
[9] = second compound 0.316 µM, first compound 0.1 µM
[10] = second compound 0.316 µM, first compound 0.316 µM
[11] = second compound 0.316 µM, first compound 1 µM
[12] = second compound 0.316 µM, first compound 3.16 µM
[13] = second compound 1 µM, first compound 0.01 µM
[14] = second compound 1 µM, first compound 0.0316 µM
[15] = second compound 1 µM, first compound 0.1 µM
[16] = second compound 1 µM, first compound 0.316 µM
[17] = second compound 1 µM, first compound 1 µM
[18] = second compound 1 µM, first compound 3.16 µM
[19] = second compound 3.16 µM, first compound 0.01 µM
[20] = second compound 3.16 µM, first compound 0.0316 µM
[21] = second compound 3.16 µM, first compound 0.1 µM
[22] = second compound 3.16 µM, first compound 0.316 µM
[23] = second compound 3.16 µM, first compound 1 µM
[24] = second compound 3.16 µM, first compound 3.16 µM
[25] = second compound 10 µM, first compound 0.01 µM
[26] = second compound 10 µM, first compound 0.0316 µM
[27] = second compound 10 µM, first compound 0.1 µM
[28] = second compound 10 µM, first compound 0.316 µM
[29] = second compound 10 µM, first compound 1 µM
[30] = second compound 10 µM, first compound 3.16 µM
[31] = second compound 0.1 µM, first compound 10 µM
[32] = second compound 0.316 µM, first compound 10 µM
[33] = second compound 1 µM, first compound 10 µM
[34] = second compound 3.16 µM, first compound 10 µM
[35] = second compound 10 µM, first compound 10 µM
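Further: spheroids exposed to agents for 7 days before readout.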

CC1COCCN1c1cc(-c2ccnn2C)c2ccnc(-c3ccn[nH]3)c2n1 (stereo not given) + CC1OCC2(CCN(c3cnc(Sc4ccnc(N)c4Cl)c(N)n3)CC2)C1N
236 nM: IC50 (second compound 10 µM)
852 nM: IC50 (second compound 1 µM)
573 nM: IC50 (second compound 3.16 µM)
> 3160 nM: IC50 (second compound 0.1 µM) | IC50 (second compound 0.316 µM)
inactive: viability, T/C [1] 91.3% | viability, T/C [2] 87.2% | viability, T/C [3] 67.6% | viability, T/C [4] 60.1% | viability, T/C [5] 53% | viability, T/C [6] 52.1% | viability, T/C [7] 81% | viability, T/C [8] 75.5% | viability, T/C [9] 61.4% | viability, T/C [10] 60.2% | viability, T/C [11] 54.7% | viability, T/C [12] 49.8% | viability, T/C [13] 80.7% | viability, T/C [14] 69.1% | viability, T/C [15] 63% | viability, T/C [16] 58.4% | viability, T/C [17] 47.9% | viability, T/C [18] 42.7% | viability, T/C [19] 73.5% | viability, T/C [20] 67.2% | viability, T/C [21] 56.9% | viability, T/C [22] 56% | viability, T/C [23] 45.9% | viability, T/C [24] 42.2% | viability, T/C [25] 65.3% | viability, T/C [26] 59.7% | viability, T/C [27] 53.8% | viability, T/C [28] 49.2% | viability, T/C [29] 43.2% | viability, T/C [30] 41%

CCN1CCN(Cc2ccc(Nc3ncc(F)c(-c4cc(F)c5nc(C)n(C(C)C)c5c4)n3)nc2)CC1 + CC1OCC2(CCN(c3cnc(Sc4ccnc(N)c4Cl)c(N)n3)CC2)C1N
inactive: viability, T/C (second compound 0.1 µM, first compound 0.00316 µM) 88.2% | viability, T/C [1] 94.5% | viability, T/C [2] 78% | viability, T/C [3] 74.3% | viability, T/C [4] 79.8% | viability, T/C [5] 76.9% | viability, T/C (second compound 0.316 µM, first compound 0.00316 µM) 80% | viability, T/C [7] 76.3% | viability, T/C [8] 71.6% | viability, T/C [9] 71.2% | viability, T/C [10] 81.2% | viability, T/C [11] 81% | viability, T/C (second compound 1 µM, first compound 0.00316 µM) 82.7% | viability, T/C [13] 77.5% | viability, T/C [14] 71.4% | viability, T/C [15] 63.5% | viability, T/C [16] 75.5% | viability, T/C [17] 73.7% | viability, T/C (second compound 3.16 µM, first compound 0.00316 µM) 73.8% | viability, T/C [19] 73% | viability, T/C [20] 68.7% | viability, T/C [21] 61.5% | viability, T/C [22] 68.1% | viability, T/C [23] 71% | viability, T/C (second compound 10 µM, first compound 0.00316 µM) 70.9% | viability, T/C [25] 68.1% | viability, T/C [26] 63.2% | viability, T/C [27] 59.6% | viability, T/C [28] 66% | viability, T/C [29] 63.2%
> 1000 nM: IC50 (second compound 0.1 µM) | IC50 (second compound 0.316 µM) | IC50 (second compound 1 µM) | IC50 (second compound 3.16 µM) | IC50 (second compound 10 µM)

CCNC(=O)CC1N=C(c2ccc(Cl)cc2)c2cc(OC)ccc2-n2c(C)nnc21 (stereo not given) + CC1OCC2(CCN(c3cnc(Sc4ccnc(N)c4Cl)c(N)n3)CC2)C1N
inactive: viability, T/C [2] 92.8% | viability, T/C [3] 95% | viability, T/C [4] 67.2% | viability, T/C [5] 54.5% | viability, T/C [6] 43.9% | viability, T/C [31] 49.5% | viability, T/C [8] 86.1% | viability, T/C [9] 80% | viability, T/C [10] 59.2% | viability, T/C [11] 45.2% | viability, T/C [12] 44% | viability, T/C [32] 40.2% | viability, T/C [14] 80.5% | viability, T/C [15] 80% | viability, T/C [16] 56.6% | viability, T/C [17] 45% | viability, T/C [18] 38.5% | viability, T/C [33] 33.9% | viability, T/C [20] 74% | viability, T/C [21] 72.5% | viability, T/C [22] 54.1% | viability, T/C [23] 37.9% | viability, T/C [24] 33.5% | viability, T/C [34] 30.1% | viability, T/C [26] 66.9% | viability, T/C [27] 61.9% | viability, T/C [28] 47.5% | viability, T/C [29] 31.6% | viability, T/C [30] 26.4% | viability, T/C [35] 26.2%
1000 nM: IC50 (second compound 0.1 µM)
437 nM: IC50 (second compound 3.16 µM)
256 nM: IC50 (second compound 10 µM)
600 nM: IC50 (second compound 1 µM)
676 nM: IC50 (second compound 0.316 µM)

Cn1nccc1Nc1nccc(-c2cc3c(s2)C(C)(C)N(CCN2CCOCC2)C3=O)n1 + CC1OCC2(CCN(c3cnc(Sc4ccnc(N)c4Cl)c(N)n3)CC2)C1N
223 nM: IC50 (second compound 1 µM)
105 nM: IC50 (second compound 10 µM)
239 nM: IC50 (second compound 0.316 µM)
330 nM: IC50 (second compound 0.1 µM)
inactive: viability, T/C [2] 87.4% | viability, T/C [3] 68.4% | viability, T/C [4] 50.4% | viability, T/C [5] 38.2% | viability, T/C [6] 32.8% | viability, T/C [31] 28.8% | viability, T/C [8] 82.8% | viability, T/C [9] 65.9% | viability, T/C [10] 43.2% | viability, T/C [11] 35.7% | viability, T/C [12] 30.7% | viability, T/C [32] 26.6% | viability, T/C [14] 74.9% | viability, T/C [15] 61.7% | viability, T/C [16] 44.8% | viability, T/C [17] 33.3% | viability, T/C [18] 27.2% | viability, T/C [33] 26% | viability, T/C [20] 64.7% | viability, T/C [21] 59.9% | viability, T/C [22] 42.2% | viability, T/C [23] 28.8% | viability, T/C [24] 25.8% | viability, T/C [34] 24.1% | viability, T/C [26] 57% | viability, T/C [27] 51.4% | viability, T/C [28] 35.9% | viability, T/C [29] 26.6% | viability, T/C [30] 22.4% | viability, T/C [35] 20.6%
191 nM: IC50 (second compound 3.16 µM)

CC(=O)OC12COC1CC(O)C1(C)C(=O)C(O)C3=C(C)C(OC(=O)C(O)C(NC(=O)OC(C)(C)C)c4ccccc4)CC(O)(C(OC(=O)c4ccccc4)C21)C3(C)C (stereo not given) + CNCc1ccccc1-c1csc(C(C)Nc2nc(C)nc3cc(OC)c(OC)cc23)c1
inactive: viability, T/C [1] 81.2% | viability, T/C [2] 93.5% | viability, T/C [3] 97% | viability, T/C [4] 96.9% | viability, T/C [5] 105% | viability, T/C [6] 104% | viability, T/C [7] 85.6% | viability, T/C [8] 92.2% | viability, T/C [9] 96.2% | viability, T/C [10] 98.9% | viability, T/C [11] 101% | viability, T/C [12] 100% | viability, T/C [13] 84.6% | viability, T/C [14] 97.9% | viability, T/C [15] 104% | viability, T/C [16] 101% | viability, T/C [17] 103% | viability, T/C [18] 105% | viability, T/C [19] 0.36% | viability, T/C [20] 93.9% | viability, T/C [21] 1.4% | viability, T/C [22] 0.54% | viability, T/C [23] 13% | viability, T/C [24] 110%
active: viability, T/C [25] 0.32% | viability, T/C [26] 0.17% | viability, T/C [27] 0.21% | viability, T/C [28] 0.2% | viability, T/C [29] 0.22% | viability, T/C [30] 0.28%
> 3160 nM: IC50 (second compound 0.1 µM) | IC50 (second compound 0.316 µM) | IC50 (second compound 1 µM)
< 10 nM: IC50 (second compound 3.16 µM) | IC50 (second compound 10 µM)
